Test results from PubChem BioAssay AID192 (DTP/NCI, 2004).
Several values for one entry are separate records, joined by “and”; a condition that tells them apart may be missing. Identical values can stand only once. Inconclusive results and toxic doses are left out. Square brackets hold non-standard residues; d marks the D form. Peptide text beside a SMILES is read from it. ξ: configuration not given here. ξF = NC(Cc1ccccc1)C(=O)O

System: BDF1 mice, B16 melanoma ip, median survival T/C
Test: NCI In Vivo Anticancer Drug Screen. Data for tumor model B16 Melanoma (intraperitoneal) in B6D2F1 (BDF1) mice
Conditions: endpoint: median survival time, higher = longer survival
Procedure: The antitumor activity of compounds was measured in mice bearing transplantable tumors. Survival or tumor size were measured and the results are expressed as the measurement made in the treated group (T) divided by the measurement made in the vehicle treated control group (C). The tumor model used in this assay is B16 Melanoma (intraperitoneal) in B6D2F1 (BDF1) mice

[1] = dose: 25.0 mg/kg/injection, schedule: Q01DX009 (ip), vehicle: Klucel (hydroxypropylcellulose) (HPC)
[2] = dose: 100.0 mg/kg/injection, schedule: Q01DX009 (ip), vehicle: Klucel (hydroxypropylcellulose) (HPC)
[3] = dose: 200.0 mg/kg/injection, schedule: Q01DX009 (ip), vehicle: Klucel (hydroxypropylcellulose) (HPC)
[4] = dose: 50.0 mg/kg/injection, schedule: Q01DX009 (ip), vehicle: saline
[5] = dose: 100.0 mg/kg/injection, schedule: Q01DX009 (ip), vehicle: saline
[6] = dose: 200.0 mg/kg/injection, schedule: Q01DX009 (ip), vehicle: saline
[7] = dose: 400.0 mg/kg/injection, schedule: Q01DX009 (ip), vehicle: saline
[8] = dose: 12.5 mg/kg/injection, schedule: Q01DX009 (ip), vehicle: saline with Tween-80
[9] = dose: 25.0 mg/kg/injection, schedule: Q01DX009 (ip), vehicle: saline with Tween-80

`COc1cc2c(cc1OC)C(OC)N(C)c1c-2ccc2cc(OC)c(OC)cc12` (stereo not given) was tested, and the T/C (dose: 37.5 mg/kg/injection, schedule: Q01DX009 (ip), vehicle: Klucel (hydroxypropylcellulose) (HPC)) was 98 % of control, the T/C (dose: 75.0 mg/kg/injection, schedule: Q01DX009 (ip), vehicle: Klucel (hydroxypropylcellulose) (HPC)) was 95 % of control and the T/C (dose: 150.0 mg/kg/injection, schedule: Q01DX009 (ip), vehicle: Klucel (hydroxypropylcellulose) (HPC)) was 100 % of control. For the same molecule, the T/C (dose: 300.0 mg/kg/injection, schedule: Q01DX009 (ip), vehicle: Klucel (hydroxypropylcellulose) (HPC)) was 100 % of control.
For `OC(Cc1nc(-c2ccccc2)c(-c2ccccc2)s1)(C(F)(F)F)C(F)(F)F`, the T/C (dose: 100.0 mg/kg/injection, schedule: Q04DX003 (ip), vehicle: saline with Tween-80) was 105 % of control and the T/C (dose: 200.0 mg/kg/injection, schedule: Q04DX003 (ip), vehicle: saline with Tween-80) was 86 % of control.
In the case of `Nc1nc2c(ncn2C2OC(CO)C(O)C2O)c(=O)[nH]1.Nc1nc2c(ncn2C2OC(CO)C(O)C2O)c(=O)[nH]1.[NH2-].[NH2-].[Pt+2]` (stereo not given), the T/C (dose: 6.25 mg/kg/injection, schedule: Q01DX009 (ip), vehicle: water) is reported as 100 % of control and 108 % of control, the T/C (dose: 12.5 mg/kg/injection, schedule: Q01DX009 (ip), vehicle: water) is reported as 98 % of control and 114 % of control and the T/C (dose: 25.0 mg/kg/injection, schedule: Q01DX009 (ip), vehicle: water) is reported as 117 % of control. For the same molecule, the T/C (dose: 50.0 mg/kg/injection, schedule: Q01DX009 (ip), vehicle: water) was 109 % of control, the T/C (dose: 100.0 mg/kg/injection, schedule: Q01DX009 (ip), vehicle: water) was 160 % of control and the T/C (dose: 200.0 mg/kg/injection, schedule: Q01DX009 (ip), vehicle: water) was 151 % of control and 170 % of control.
With `O=C(NP(=O)(N1CC1)N1CC1)c1cc(I)ccc1I` the T/C (dose: 1.0 mg/kg/injection, schedule: Q02DX009 (ip), vehicle: saline with Tween-80) was 100 % of control, the T/C (dose: 1.0 mg/kg/injection, schedule: Q02DX009 (ip), vehicle: saline) was 104 % of control and the T/C (dose: 2.0 mg/kg/injection, schedule: Q02DX009 (ip), vehicle: saline with Tween-80) was 106 % of control. The T/C (dose: 2.0 mg/kg/injection, schedule: Q02DX009 (ip), vehicle: saline) was 107 % of control, the T/C (dose: 4.0 mg/kg/injection, schedule: Q02DX009 (ip), vehicle: saline with Tween-80) was 93 % of control and the T/C (dose: 4.0 mg/kg/injection, schedule: Q02DX009 (ip), vehicle: saline) was 98 % of control. The T/C (dose: 8.0 mg/kg/injection, schedule: Q02DX009 (ip), vehicle: saline with Tween-80) was 120 % of control, the T/C (dose: 8.0 mg/kg/injection, schedule: Q02DX009 (ip), vehicle: saline) was 112 % of control and the T/C (dose: 16.0 mg/kg/injection, schedule: Q02DX009 (ip), vehicle: saline) was 116 % of control. For the same molecule, the T/C (dose: 32.0 mg/kg/injection, schedule: Q02DX009 (ip), vehicle: saline) was 107 % of control, the T/C (dose: 64.0 mg/kg/injection, schedule: Q02DX009 (ip), vehicle: saline with Tween-80) was 92 % of control and the T/C (dose: 64.0 mg/kg/injection, schedule: Q02DX009 (ip), vehicle: saline) was 101 % of control.
For `O=[N+]([O-])O.O=[N+]([O-])O.[NH-]C1CCCCC1[NH-].[Pt+2]` (stereo not given), the T/C (dose: 0.25 mg/kg/injection, schedule: Q01DX009 (ip), vehicle: dextrose) was 110 % of control, the T/C (dose: 0.5 mg/kg/injection, schedule: Q01DX009 (ip), vehicle: dextrose) was 120 % of control and the T/C (dose: 1.0 mg/kg/injection, schedule: Q01DX009 (ip), vehicle: dextrose) was 160 % of control. For the same molecule, the T/C (dose: 2.0 mg/kg/injection, schedule: Q01DX009 (ip), vehicle: dextrose) was 183 % of control.
For `CCN(C)N=Nc1ccc(C(N)=O)cc1`, the T/C [1] was 104 % of control and the T/C (dose: 50.0 mg/kg/injection, schedule: Q01DX009 (ip), vehicle: Klucel (hydroxypropylcellulose) (HPC)) was 112 % of control.
For `CC[n+]1ccc(/C=C\c2c(Cl)cccc2Cl)cc1`, the T/C (dose: 6.25 mg/kg/injection, schedule: Q01DX009 (ip), vehicle: Klucel (hydroxypropylcellulose) (HPC)) was 94 % of control, the T/C (dose: 12.5 mg/kg/injection, schedule: Q01DX009 (ip), vehicle: Klucel (hydroxypropylcellulose) (HPC)) was 88 % of control and the T/C [1] was 88 % of control.
With `O=C1NC(c2ccc3ccccc3c2)Nc2ccccc21` (stereo not given) the T/C [2] was 96 % of control, the T/C [3] was 103 % of control and the T/C (dose: 400.0 mg/kg/injection, schedule: Q01DX009 (ip), vehicle: Klucel (hydroxypropylcellulose) (HPC)) was 90 % of control.
With `C=C1CCC2(C)C(O)CC3(C)C(CCC4C5(C)CCC(OC(C)=O)C(C)(C)C5CCC43C)C2C1C` (stereo not given) the T/C (dose: 1.0 mg/kg/injection, schedule: Q01DX009 (ip), vehicle: other) was 107 % of control, the T/C (dose: 2.0 mg/kg/injection, schedule: Q01DX009 (ip), vehicle: other) was 101 % of control and the T/C (dose: 4.0 mg/kg/injection, schedule: Q01DX009 (ip), vehicle: other) was 102 % of control.
For `CN(C)c1nc(N)nc(Nc2ccc(Br)cc2)c1N=O`, the T/C [3] was 118 % of control.
For `CC1(C)C(=O)NC(=O)C1(C)C`, the T/C (dose: 6.25 mg/kg/injection, schedule: Q01DX009 (ip), vehicle: saline) was 92 % of control, the T/C (dose: 12.5 mg/kg/injection, schedule: Q01DX009 (ip), vehicle: saline) was 96 % of control and the T/C (dose: 25.0 mg/kg/injection, schedule: Q01DX009 (ip), vehicle: saline) was 95 % of control. The T/C [4] was 90 % of control.
With `Cc1ccc(NC(=O)Nc2ccc(C)c(NC(=O)Nc3ccc(C)cc3C)c2)c(C)c1` the T/C [2] was 91 % of control and the T/C [3] was 96 % of control.
With `NCC(=O)NCC(=O)NC(Cc1ccccc1)C(=O)O` (stereo not drawn) (H-Gly-Gly-[ξF]-OH) the T/C [5] was 90 % of control, the T/C (dose: 100.0 mg/kg/injection, schedule: Q04DX003 (ip), vehicle: saline) was 92 % of control and the T/C [6] was 90 % of control. The T/C (dose: 200.0 mg/kg/injection, schedule: Q04DX003 (ip), vehicle: saline) was 97 % of control, the T/C [7] was 93 % of control and the T/C (dose: 400.0 mg/kg/injection, schedule: Q04DX003 (ip), vehicle: saline) was 90 % of control.
`CNC1=C(N2CC2)C(=O)C(NC)=C(N2CC2)C1=O` was tested, and the T/C (dose: 0.01 mg/kg/injection, schedule: Q01DX009 (ip), vehicle: saline) was 102 % of control, the T/C (dose: 0.1 mg/kg/injection, schedule: Q01DX009 (ip), vehicle: saline) was 108 % of control and the T/C (dose: 0.2 mg/kg/injection, schedule: Q01DX009 (ip), vehicle: saline) was 94 % of control.
For `CC1(C)N=C(N)N=C(N)N1c1ccc(OCCCCNC(=O)c2ccc(S(=O)(=O)F)cc2)c(Cl)c1`, the T/C [8] was 108 % of control, the T/C [9] was 112 % of control and the T/C (dose: 50.0 mg/kg/injection, schedule: Q01DX009 (ip), vehicle: saline with Tween-80) was 111 % of control. For the same molecule, the T/C (dose: 100.0 mg/kg/injection, schedule: Q01DX009 (ip), vehicle: saline with Tween-80) was 112 % of control.
In the case of `Cc1c(N=CN(C)C)c(=O)n(-c2ccccc2)n1C`, the T/C (dose: 97.0 mg/kg/injection, schedule: Q04DX003 (ip), vehicle: Klucel (hydroxypropylcellulose) (HPC)) is reported as 97 % of control, the T/C (dose: 187.5 mg/kg/injection, schedule: Q04DX003 (ip), vehicle: Klucel (hydroxypropylcellulose) (HPC)) is reported as 105 % of control and the T/C (dose: 375.0 mg/kg/injection, schedule: Q04DX003 (ip), vehicle: Klucel (hydroxypropylcellulose) (HPC)) is reported as 87 % of control.
`CCOC(=O)C(N)C[S][Sn]([CH3])([CH3])[Cl]` (stereo not given) was tested, and the T/C (dose: 6.25 mg/kg/injection, schedule: Q01DX009 (ip), vehicle: saline with Tween-80) was 105 % of control, the T/C [8] was 88 % of control and the T/C [9] was 100 % of control.
With `COc1cc([C@@H]2c3cc4c(c(O)c3C[C@H]3COC(=O)[C@@H]32)OCO4)cc(OC)c1OC` the T/C (dose: 0.12 mg/kg/injection, schedule: Q01DX009 (ip), vehicle: suspension in saline) was 100 % of control, the T/C (dose: 0.25 mg/kg/injection, schedule: Q01DX009 (ip), vehicle: suspension in saline) was 102 % of control and the T/C (dose: 0.5 mg/kg/injection, schedule: Q01DX009 (ip), vehicle: saline) was 109 % of control. For the same molecule, the T/C (dose: 0.5 mg/kg/injection, schedule: Q01DX009 (ip), vehicle: suspension in saline) was 120 % of control, the T/C (dose: 1.0 mg/kg/injection, schedule: Q01DX009 (ip), vehicle: saline) was 114 % of control and the T/C (dose: 1.0 mg/kg/injection, schedule: Q01DX009 (ip), vehicle: suspension in saline) was 121 % of control.
In the case of `OCC1OC(Oc2ccc(O)cc2)C(O)C(O)C1O` (stereo not given), the T/C [4] is reported as 100 % of control, the T/C [5] is reported as 99 % of control and the T/C [6] is reported as 96 % of control. For the same molecule, the T/C [7] was 101 % of control.
